Results: patent publication US6506791B2, “Method of treatment of protozoan infections in fish” (Jacksonville State University, priority 2000, dated 2003)

Tests used:
[1] = tested on: mouse; conditions: cited from earlier work
[2] = tested on: humans; conditions: according to the FDA (1982); cited from earlier work
[3] = tested on: rat; conditions: cited from earlier work
[4] = tested on: dog; conditions: cited from earlier work
[5] = tested on: Ick; test: LIGHT EXPERIMENT under greenhouse conditions (effect of light intensity); format: cell-based, Ichthyophthirius multifiliis
Method: (§1) An in vivo study was conducted involving the direct dosing of Ick parasites with Phloxine B. 1 μl of Ick theronts, both free-swimming tomites and non-ruptured cysts, and 9 μl of a Phloxine solution containing either 1000, 100, 10, 1 and 0 ppm of Phloxine B were placed into 100×15 mm tri-plate petri dishes providing 3 replicates for each treatment. 1 set of the plates was left exposed to ambient light (6 mE m^−2s^−1) for 5 hr (LIGHT EXPERIMENT), while the other set was kept in the dark for 4 hr then exposed to ambient light for 1 hr (DARK EXPERIMENT). Percent mortality was assessed, then both light and dark plates received a second dose of Phloxine B at the same concentration as before and treated in the same manner.
An experiment was designed to test the effect of light intensity on the effectiveness of Phloxine B treatment of Ick. The previous experiments described in Examples 1 and 2 were conducted in the lab. The ambient light intensity in the lab was very low, 6 μmol m^−2s^−1. An experiment was conducted as following the protocol of Example 1, except the experiment was conducted in a greenhouse to better mimic natural light conditions.

[6] = tested on: Ick theronts, both free-swimming tomites and non-ruptured cysts; test: Direct dosing of Ick parasites with Phloxine B, DARK EXPERIMENT (lab conditions); format: cell-based, Ichthyophthirius multifiliis
Method: as §1

[7] = tested on: Ick theronts, both free-swimming tomites and non-ruptured cysts; test: Direct dosing of Ick parasites with Phloxine B, LIGHT EXPERIMENT (ambient light, lab); format: cell-based, Ichthyophthirius multifiliis
Method: as §1

[8] = tested on: Ick; test: Light and dark experiment with doubled exposure times (Example 2); format: cell-based, Ichthyophthirius multifiliis; conditions: 8 hr dark then 2 hr light or 10 hr light
Method: as §1
A light and dark experiment were set up following the protocol in Example 1, but exposure times were doubled—8 hr dark then 2 hr light or 10 hr light.

[9] = exposure to sunlight; cited from earlier work
[10] = tested on: Ick trophozoite stage attached to the fish host; test: Aquarium treatment of fish infected with Ick, microscopic examination; format: in vivo, Ichthyophthirius multifiliis; conditions: around 5 mg/L in aquarium, added in darkness, at least eight hours absorption, then artificial lamps
Source text: The effectiveness of treatments of photoactive dyes on parasite control in a particular fish population can be determined by those skilled in the art by monitoring the general behavior of the fish (swimming, feeding, etc.) and the appearance of the parasite by microscopic examination. For example, live Ick trophozoites may be monitored using image analysis microscopy using a Image-Pro Plus V. 4.0.0.13, available from Media Cybernetics, L.P.
In one embodiment of the invention, the photoactive dye, Phloxine B, is added as a dry powder to an aquarium containing fish infected with Ick. The Phloxine B is added to achieve a final concentration of around 5 mg/L. The Phloxine B is added to the aquarium in darkness and at least eight hours of absorption is allowed before photoactivation. Photoactivation is achieved by exposing the Ick infected fish to light from artificial lamps. […] Although this particular embodiment is performed in a laboratory setting, those skilled in the art will understand that the teachings can be adapted to a commercial operation without undue experimentation.

[11] = cited from earlier work

O=C([O-])c1c(Cl)c(Cl)c(Cl)c(Cl)c1-c1c2cc(Br)c(=O)c(Br)c-2oc2c(Br)c([O-])c(Br)cc12.[Na+].[Na+] [Phloxine B, 2′, 4′, 5′ 7′-tetrabromo-4,5,6,7-tetrachlorofluorescein, disodium salt]
LD50 [1]: 310 mg/kg | Relatively non-toxic ingested amount [2]: ≤ 1.25 mg/kg body weight | LD50 [3]: 8400 mg/kg | LD50 [4]: > 4600 mg/kg | Percent mortality ([5]; 1 ppm): No effect | Percent mortality ([5]; 10 ppm, 1 dose): No effect | Percent mortality ([5]; 100 ppm, 1 dose): 50% Mortality | Percent mortality ([5]; 1000 ppm, 1 dose): 100% Mortality | Percent mortality ([6]; 1 ppm, 1 dose, dark 4 hr then ambient light 1 hr): No effect | Percent mortality ([6]; 1 ppm, 2 doses, dark 4 hr then ambient light 1 hr per dose): No effect | Percent mortality ([6]; 10 ppm, 1 dose, dark 4 hr then ambient light 1 hr): No effect | Percent mortality ([6]; 10 ppm, 2 doses, dark 4 hr then ambient light 1 hr per dose): No effect | Percent mortality ([6]; 100 ppm, 1 dose, dark 4 hr then ambient light 1 hr): No effect | Percent mortality ([6]; 100 ppm, 2 doses, dark 4 hr then ambient light 1 hr per dose): 10% Mortality | Percent mortality ([6]; 1000 ppm, 1 dose, dark 4 hr then ambient light 1 hr): 40% Mortality | Percent mortality ([6]; 1000 ppm, 2 doses, dark 4 hr then ambient light 1 hr per dose): 95% Mortality | Percent mortality ([7]; 1 ppm, 1 dose, ambient light 5 hr): No effect | Percent mortality ([7]; 1 ppm, 2 doses, ambient light 5 hr per dose): No effect | Percent mortality ([7]; 10 ppm, 1 dose, ambient light 5 hr): No effect | Percent mortality ([7]; 10 ppm, 2 doses, ambient light 5 hr per dose): No effect | Percent mortality ([7]; 100 ppm, 1 dose, ambient light 5 hr): 20% Mortality | Percent mortality ([7]; 100 ppm, 2 doses, ambient light 5 hr per dose): 80% Mortality | Percent mortality ([7]; 1000 ppm, 1 dose, ambient light 5 hr): 80% Mortality | Percent mortality ([7]; 1000 ppm, 2 doses, ambient light 5 hr per dose): 100% Mortality | Uptake of the dye by free-swimming and encysted organisms ([7]; observation from Examples 1-3): taken up both free-swimming and encysted organisms | Effect of exposure time on effectiveness of the dye [8]: longer exposure time increased the effectiveness | Time to degradation and detoxification [9]: < 1 h | Effectiveness against trophozoite stage attached to the fish host [10]: effective against the formerly invulnerable trophozoite stage | Water solubility [11]: greater than 120 mg/l
